Assay results reported in the Bradley open melting point set (2014).
Where “and” joins values, the source holds several entries; their conditions need not be identical. Identical values can stand only once.

| Structure (SMILES) | melting point |
| --- | --- |
| COC1=CC(=O)C[C@@H](C)[C@]12Oc1c(Cl)c(OC)cc(OC)c1C2=O [griseofulvin] | 219 °C |
| O=C1CN=C(c2ccccc2)c2cc(Cl)ccc2N1CC(F)(F)F [halazepam] | 164 °C |
| O=C(CCCN1CCC(O)(c2ccc(Cl)cc2)CC1)c1ccc(F)cc1 [haloperidol] | 148 °C |
| O=C1CN2CCOC2(c2ccccc2F)c2cc(Br)ccc2N1 (centres undefined) [haloxazolam] | 185 °C |
| Brc1c(Br)c(Br)c(Br)c(Br)c1Br [hexabromobenzene] | 306 °C |
| C[Si]1(C)O[Si](C)(C)O[Si](C)(C)O1 [hexamethylcyclotrisiloxane] | 65 °C |
| CCCCCC(=O)O [hexanoic acid] | -1.9 °C |
| c1ccc([Si]2(c3ccccc3)O[Si](c3ccccc3)(c3ccccc3)O[Si](c3ccccc3)(c3ccccc3)O2)cc1 [hexaphenylcyclotrisiloxane] | 180 °C |
| c1ccc([Si](c2ccccc2)(c2ccccc2)[Si](c2ccccc2)(c2ccccc2)c2ccccc2)cc1 [hexaphenyldisilane] | 369 °C |
| CCCCCCOC(C)=O [hexyl_acetate] | -80 °C |
| NS(=O)(=O)c1cc2c(cc1Cl)NCNS2(=O)=O [hydrochlorothiazide] | 270 °C |
| CC12CCC(=O)C=C1CCC1C2C(O)CC2(C)C1CCC2(O)C(=O)CO (centres undefined) [hydrocortisone] | 223 °C |
| NS(=O)(=O)c1cc2c(cc1C(F)(F)F)NCNS2(=O)=O [hydroflumethiazide] | 272 °C |
| CC(C)Cc1ccc(C(C)C(=O)O)cc1 (centres undefined) [ibuprofen] | 76 °C |
| N#Cc1ccc2cc[nH]c2c1 [indole-6-carbonitrile] | 130 °C |
| c1ccc2[nH]ccc2c1 [indole] | 52 °C |
| CCCCC1=NC2(CCCC2)C(=O)N1Cc1ccc(-c2ccccc2-c2nnn[nH]2)cc1 [irbesartan] | 180 °C |
| CC(C)CB(O)O [isobutylboronic acid] | 109 °C |
| CC(C)C=O [isobutyraldehyde] | -65 °C |
| CC(C)C#N [isobutyronitrile] | -72 °C |
| Cc1cc(C(=O)NNCc2ccccc2)no1 [isocarboxazid] | 106 °C |
| N#Cc1cccc(C#N)c1 [isophthalonitrile] | 161 °C |
| CC(C)N [isopropylamine] | -101 °C |
| [O-][n+]1ccc2ccccc2c1 [isoquinoline n-oxide] | 104 °C |

| Structure (SMILES) | melting point |
| --- | --- |
| OC1COC2C(O)COC12 (centres undefined) [isosorbide] | 61 °C |
| Oc1noc2nc3ccccc3nc12 [isoxazolo[4,5-b]quinoxalin-3(2H)-one] | 323 °C |
| CC(COc1ccccc1)NC(C)C(O)c1ccc(O)cc1 (centres undefined) [isoxsuprine] | 103 °C |
| C=C(CC(=O)O)C(=O)O [itaconic acid] | 167 °C |
| CCC(=O)C1(c2cccc(O)c2)CCN(C)CC1 [ketobemidone] | 156 °C |
| CC(=O)N1CCN(c2ccc(OCC3COC(Cn4ccnc4)(c4ccc(Cl)cc4Cl)O3)cc2)CC1 (centres undefined) [ketoconazole] | 146 °C |
| CC(C(=O)O)c1cccc(C(=O)c2ccccc2)c1 (centres undefined) [ketoprofen] | 94 °C |
| O=c1cc(CO)occ1O [kojic acid] | 154 °C |
| CC(O)C(=O)O (centres undefined) [lactic acid] | 18 °C |
| N#Cc1ccc(C(c2ccc(C#N)cc2)n2cncn2)cc1 [letrozole] | 181 °C |
| CCCCC/C=C\C/C=C\CCCCCCCC(=O)O [linoleic acid] | -12 °C |
| O=C1Nc2ccc(Cl)cc2C(c2ccccc2Cl)=NC1O (centres undefined) [lorazepam] | 166 °C |
| CC[C@H](C)C(=O)O[C@H]1C[C@@H](C)C=C2C=C[C@H](C)[C@H](CC[C@@H]3C[C@@H](O)CC(=O)O3)[C@H]21 [lovastatin] | 175 °C |
| O=C(O[C@@H]1[C@H]3C(=C/[C@H](C)C1)\C=C/[C@@H]([C@@H]3CC[C@H]2OC(=O)C[C@H](O)C2)C)[C@@H](C)CC [lovastatin] | 174 °C |
| O=C\1c3c(O/C(=C/1)c2ccc(O)c(O)c2)cc(O)cc3O [luteolin] | 330 °C |
| CC(=O)Oc1cccc(C(=O)O)c1 [m-acetoxy_benzoic_acid] | 133 °C |
| Brc1cccc(I)c1 [m-bromoiodobenzene] | -9 °C |
| Nc1cccc(Cl)c1 [m-chloroaniline] | -10 °C |
| Ic1cccc(I)c1 [m-diiodobenzene] | 37 °C |
| O=Cc1cccc([N+](=O)[O-])c1 [m-nitrobenzaldehyde] | 59 °C |
| N#Cc1cccc([N+](=O)[O-])c1 [m-nitrobenzonitrile] | 117 °C |
| O=[N+]([O-])c1cccc(O)c1 [m-nitrophenol] | 98 °C |
| C=Cc1cccc([N+](=O)[O-])c1 [m-nitrostyrene] | -5 °C |
| c1ccc(-c2cccc(-c3ccccc3)c2)cc1 [m-terphenyl] | 87 °C |

| Structure (SMILES) | melting point |
| --- | --- |
| Cc1cccc(N)c1 [m-toluidine] | -30 °C |
| Cc1cccc(C#N)c1 [m-tolunitrile] | -23 °C |
| NNC(=O)CC(=O)NN [malonic acid dihydrazide] | 154 °C |
| CCC(C)C(C)(COC(N)=O)COC(N)=O (centres undefined) [mebutamate] | 77 °C |
| Cc1nc2ccccc2c(=O)n1-c1ccccc1Cl [mecloqualone] | 126 °C |
| CC1CCC(C(C)C)C(O)C1 (centres undefined) [menthol] | 45 °C |
| CCC1(c2ccccc2)NC(=O)N(C)C1=O (centres undefined) [mephenytoin] [listing 1 of 2 here] | 136 °C |
| CCC1(c2ccccc2)NC(=O)N(C)C1=O (centres undefined) [mephenytoin] [listing 2 of 2 here] | 135 °C and 136 °C |
| Cc1cc(C)c(C(=O)C(=O)O)c(C)c1 [mesitylglyoxylic acid] | 121 °C |
| OCC(O)C(O)CO (stereo not drawn) [meso-erythritol] | 122 °C |
| CCC(=O)C(C[C@H](C)N(C)C)(c1ccccc1)c1ccccc1 [methadone] | 102 °C |
| CS(=O)(=O)O [methanesulfonic acid] | 20 °C |
| CO [methanol] | -98 °C (6×) and -97.5 °C |
| Cn1cc[nH]c1=S [methimazole] | 146 °C (4×) and 147 °C |
| COC(=O)C1Cc2ccccc2C(=O)O1 (centres undefined) [methyl 1-oxo-3,4-dihydro-1H-isochromene-3-carboxylate] | 90 °C |
| COC(=O)c1ccccc1NC(=O)c1ccccc1 [methyl 2-(benzoylamino)benzoate] | 99 °C |
| COC(=O)c1ccc([N+](=O)[O-])cc1Cl [methyl 2-chloro-4-nitrobenzoate] | 76 °C |
| COC(=O)c1cc(OC)c(OC)c(OC)c1 [methyl 3,4,5-trimethoxybenzoate] | 85 °C |
| COC(=O)c1cc(OC)c(O)c(OC)c1 [methyl 3,5-dimethoxy-4-hydroxybenzoate] | 106 °C |
| COC(=O)n1nc(C)cc1C [methyl 3,5-dimethyl-1H-pyrazole-1-carboxylate] | 52 °C |
| COC(=O)c1sccc1Cl [methyl 3-chlorothiophene-2-carboxylate] | 38 °C |
| COC(=O)c1sccc1O [methyl 3-hydroxythiophene-2-carboxylate] | 46 °C |

The next lines start with the values.

| melting point | Structure (SMILES) |
| --- | --- |
| 175 °C | Oc1ccc(O)cc1 [hydroquinone] [listing 1 of 2 here] |
| 172 °C | Oc1ccc(O)cc1 [hydroquinone] [listing 2 of 2 here] |
| 125 °C | CC(=O)Oc1ccc(OC(C)=O)cc1 [hydroquinone_diacetate] |
| -31 °C | Ic1ccccc1 [iodobenzene] |
| 171 °C | NNC(=O)c1ccncc1 [isoniazid] |
| 157 °C | NC(=O)c1ccncc1 [isonicotinamide] |
| 109 °C | CCOC(=O)c1cccc(C(=O)O)c1 [isophthalic acid, monoethyl ester] |
| 10 °C | Cc1ccnc2ccccc12 [lepidine] |
| 11 °C | Cc1cccc(O)c1 [m-Cresol] |
| 115 °C | NC(=O)c1cccc(N)c1 [m-aminobenzamide] |
| 157 °C | O=C(O)c1cccc(Br)c1 [m-bromobenzoic_acid] |
| 31 °C | Oc1cccc(Br)c1 [m-bromophenol] |
| 18 °C | O=Cc1cccc(Cl)c1 [m-chlorobenzaldehyde] |
| 159 °C | O=C(O)/C=C/c1cccc(Cl)c1 [m-chlorocinnamic_acid__(trans)] |
| 12 °C | Cc1cccc(O)c1 [m-cresol] [listing 1 of 2 here] |
| 11 °C | Cc1cccc(O)c1 [m-cresol] [listing 2 of 2 here] |
| 175 °C | O=Cc1cccc(C(=O)O)c1 [m-formyl_benzoic_acid] |

| melting point | Structure (SMILES) |
| --- | --- |
| 170 °C | NC(=O)c1cccc(O)c1 [m-hydroxybenzamide] |
| 43 °C | Oc1cccc(I)c1 [m-iodophenol] |
| 143 °C | NC(=O)c1cccc([N+](=O)[O-])c1 [m-nitrobenzamide] |
| 142 °C | O=C(O)c1cccc([N+](=O)[O-])c1 [m-nitrobenzoic_acid] |
| 65 °C | Nc1cccc(N)c1 [m-phenylenediamine] |
| 12 °C | CC(=O)Oc1cccc(C)c1 [m-tolyl_acetate] |
| 1 °C | C=Cc1cccc(O)c1 [m-vinyl_phenol] |
| 62 °C | COC(=O)c1ccccc1S(=O)(=O)Cl [methyl 2-(chlorosulfonyl)benzoate] |
| 134 °C | COC(=O)c1cc(Br)ccc1NC(C)=O [methyl 2-acetamido-5-bromobenzoate] |
| 103 °C | COC(=O)C1(C)C(C(C)=O)=Nc2ccccc21 (centres undefined) [methyl 2-acetyl-3-methyl-3H-indole-3-carboxylate] |
| 69 °C | COC(=O)c1cc(Cl)ccc1N [methyl 2-amino-5-chlorobenzoate] |
| 23 °C | COC(=O)c1cc(F)ccc1N [methyl 2-amino-5-fluorobenzoate] |
| 107 °C | COC(=O)c1ccc(N)c(N)c1 [methyl 3,4-diaminobenzoate] |
| 29 °C | COC(=O)Cc1ccc(Cl)c(Cl)c1 [methyl 3,4-dichlorophenylacetate] |
| 147 °C | COC(=O)c1sc(-c2ccccc2)cc1N [methyl 3-amino-5-phenylthiophene-2-carboxylate] |
| 21 °C | COC(=O)c1cccc(Cl)c1 [methyl 3-chlorobenzoate] |
| 71 °C | COC(=O)c1ccc(OC)c(F)c1 [methyl 3-fluoro-4-methoxybenzoate] |
